Test results: publication PMC10180054, “Design, Synthesis and Biological Evaluation of Novel Pleuromutilin Derivatives Containing 6-Chloro-1-R-1H-pyrazolo[3,4-d]pyrimidine-4-amino Side Chain” (Molecules, 2023)
Converted amounts (≈) assume the structure as drawn.

Experiments:
[1] = system: MRSA ATCC 43300; assay: MIC/MBC by broth dilution (CLSI); assay type: cell-based, Staphylococcus aureus; conditions: Staphylococcus aureus; for MBC: MRSA ATCC 43300, 99.9% of the bacteria killed; for MIC: MRSA ATCC 43300, broth dilution, 24 h, 37 °C, read-out: MIC
Protocol: (§1) The in vitro antimicrobial activity of the pleuromutilin derivatives was assessed against MRSA ATCC 43300, S. aureus ATCC 29213, S. aureus 144 and S. aureus AD3 according to the Clinical and Laboratory Standards Institute (CLSI). Tiamulin was used as a positive control drug. The results were summarized as the minimum inhibitory concentration (MIC) and the minimum bactericidal concentration (MBC) in Table 1 and Table 2. In addition, MIC results for the pleuromutilin derivatives against four Gram-negative bacteria are supplied in Tables S2 and S3.
(§2) The MIC and MBC values of the synthesized novel pleuromutilin derivatives against MRSA ATCC 43300, S. aureus ATCC 29213, S. aureus 144 and S. aureus AD3 were measured. Tiamulin was used as a positive control drug. The MIC and MBC values were manipulated by broth dilution according to the Clinical and Laboratory Standards (CLSI). Each compound to be measured was dissolved in a solution of 95% deionized water, 2.5% dimethyl sulfoxide (DMSO) and 2.5% Tween-80 with a concentration of 1280 µg/mL. Subsequently, serial twofold dilutions were made in a concentration range from 64 µg/mL to 0.0625 µg/mL. The working bacterial suspension was inoculated into each well, which provided the final inoculum density of 5 × 10^5 CFU/mL. Three parallel experiments were performed for each compound.
(§3) Overall, 25 µL of the bacterial solution from the wells with no obvious bacterial growth was inoculated on MH agar plates. Then, the inoculated MH agar plates were further cultured at 37 °C for 24 h.

[2] = system: S. aureus AD3; assay: MIC/MBC by broth dilution (CLSI); assay type: cell-based; conditions: Staphylococcus aureus, S. aureus AD3 (clinical strain)
Protocol: as §1, §2, §3

[3] = system: S. aureus 144; assay: MIC/MBC by broth dilution (CLSI); assay type: cell-based; conditions: Staphylococcus aureus; S. aureus 144 (clinical strain)
Protocol: as §1, §2, §3

[4] = system: S. aureus ATCC 29213; assay: MIC/MBC by broth dilution (CLSI); assay type: cell-based; conditions: Staphylococcus aureus, ATCC29213; for MBC: S. aureus ATCC 29213; for MIC: S. aureus ATCC 29213, broth dilution, 24 h, 37 °C
Protocol: as §1, §2, §3

Row | SMILES | melting point | MBC [1] | MIC [1] | MBC [2] | MIC [2] | MBC [3] | MIC [3] | MBC [4] | MIC [4] | MBC ([2]; 24 h) | MIC ([2]; 24 h)
1 | C=C[C@]1(C)C[C@@H](OC(=O)CNc2nc(Cl)nc3c2cnn3-c2cccc(C)c2)[C@]2(C)[C@H](C)CC[C@]3(CCC(=O)[C@H]32)[C@@H](C)[C@@H]1O [Compound 12b, 22-[(6-Chloro-1-(3-methylphenyl)-1H-pyrazolo[3,4-d]pyrimidine-4-yl)amino]-22-deoxypleuromutilin] | 97 to 99 °C | 32 µg/mL (≈ 51.6 µM) | 8 µg/mL (≈ 12.9 µM) | 16 µg/mL (≈ 25.8 µM) | 4 µg/mL (≈ 6.45 µM) | 32 µg/mL (≈ 51.6 µM) | 8 µg/mL (≈ 12.9 µM) | 32 µg/mL (≈ 51.6 µM) | 8 µg/mL (≈ 12.9 µM) |  | 
2 | C=C[C@]1(C)C[C@@H](OC(=O)CNc2nc(Cl)nc3c2cnn3-c2ccc(C)cc2)[C@]2(C)[C@H](C)CC[C@]3(CCC(=O)[C@H]32)[C@@H](C)[C@@H]1O [Compound 13b, 22-[(6-Chloro-1-(4-methylphenyl)-1H-pyrazolo[3,4-d]pyrimidine-4-yl)amino]-22-deoxypleuromutilin] |  | 32 µg/mL (≈ 51.6 µM) | 16 µg/mL (≈ 25.8 µM) | > 64 µg/mL | 16 µg/mL (≈ 25.8 µM) | > 64 µg/mL | 32 µg/mL (≈ 51.6 µM) | > 64 µg/mL | 32 µg/mL (≈ 51.6 µM) |  | 
3 | C=C[C@]1(C)C[C@@H](OC(=O)CSc2ccc(Nc3nc(Cl)nc4c3cnn4-c3ccc(C)cc3)cc2)[C@]2(C)[C@H](C)CC[C@]3(CCC(=O)[C@H]32)[C@@H](C)[C@@H]1O [Compound 13c, 22-[4-(6-Chloro-1-(4-methylphenyl)-1H-pyrazolo[3,4-d]pyrimidine-4-yl)amino-phenylsulfanyl]-22-deoxypleuromutilin] | 101 to 105 °C | > 64 µg/mL | 8 µg/mL (≈ 11 µM) |  |  | > 64 µg/mL | 16 µg/mL (≈ 22 µM) | > 64 µg/mL | 8 µg/mL (≈ 11 µM) | > 64 µg/mL | 4 µg/mL (≈ 5.49 µM)
4 | C=C[C@]1(C)C[C@@H](OC(=O)CNc2nc(Cl)nc3c2cnn3-c2ccc(C)c(C)c2)[C@]2(C)[C@H](C)CC[C@]3(CCC(=O)[C@H]32)[C@@H](C)[C@@H]1O [Compound 14b, 22-[(6-Chloro-1-(3,4-dimethylphenyl)-1H-pyrazolo[3,4-d]pyrimidine-4-yl)amino]-22-deoxypleuromutilin] | 99 to 103 °C | > 64 µg/mL | 16 µg/mL (≈ 25.2 µM) | > 64 µg/mL | 16 µg/mL (≈ 25.2 µM) | > 64 µg/mL | 16 µg/mL (≈ 25.2 µM) | > 64 µg/mL | 16 µg/mL (≈ 25.2 µM) |  | 
5 | C=C[C@]1(C)C[C@@H](OC(=O)CSc2ccc(Nc3nc(Cl)nc4c3cnn4-c3ccc(C)c(C)c3)cc2)[C@]2(C)[C@H](C)CC[C@]3(CCC(=O)[C@H]32)[C@@H](C)[C@@H]1O [Compound 14c, 22-[4-(6-Chloro-1-(3,4-dimethylphenyl)-1H-pyrazolo[3,4-d]pyrimidine-4-yl)amino-Phenylsulfanyl]-22-deoxypleuromutilin] | 103 to 105 °C |  | > 64 µg/mL |  | > 64 µg/mL |  | > 64 µg/mL |  | > 64 µg/mL |  | 
6 | C=C[C@]1(C)C[C@@H](OC(=O)CNc2nc(Cl)nc3c2cnn3-c2cc(C)cc(C)c2)[C@]2(C)[C@H](C)CC[C@]3(CCC(=O)[C@H]32)[C@@H](C)[C@@H]1O [Compound 15b, 22-[(6-Chloro-1-(3,5-dimethylphenyl)-1H-pyrazolo[3,4-d]pyrimidine-4-yl)amino]-22-deoxypleuromutilin] | 95 to 100 °C |  | > 64 µg/mL |  | > 64 µg/mL |  | > 64 µg/mL |  | > 64 µg/mL |  | 
7 | C=C[C@]1(C)C[C@@H](OC(=O)CSc2ccc(Nc3nc(Cl)nc4c3cnn4-c3cc(C)cc(C)c3)cc2)[C@]2(C)[C@H](C)CC[C@]3(CCC(=O)[C@H]32)[C@@H](C)[C@@H]1O [Compound 15c, 22-[4-(6-Chloro-1-(3,5-dimethylphenyl)-1H-pyrazolo[3,4-d]pyrimidine-4-yl)amino-Phenylsulfanyl]-22-deoxypleuromutilin] | 92 to 95 °C |  | > 64 µg/mL |  | > 64 µg/mL |  | > 64 µg/mL |  | > 64 µg/mL |  | 
8 | C=C[C@]1(C)C[C@@H](OC(=O)CNc2nc(Cl)nc3c2cnn3-c2ccc(CC)cc2)[C@]2(C)[C@H](C)CC[C@]3(CCC(=O)[C@H]32)[C@@H](C)[C@@H]1O [Compound 16b, 22-[(6-Chloro-1-(4-ethylphenyl)-1H-pyrazolo[3,4-d]pyrimidine-4-yl)amino]-22-deoxypleuromutilin] | 101 to 103 °C | > 64 µg/mL | 32 µg/mL (≈ 50.5 µM) | > 64 µg/mL | 16 µg/mL (≈ 25.2 µM) | > 64 µg/mL | 32 µg/mL (≈ 50.5 µM) | > 64 µg/mL | 32 µg/mL (≈ 50.5 µM) |  | 
9 | C=C[C@]1(C)C[C@@H](OC(=O)CSc2ccc(Nc3nc(Cl)nc4c3cnn4-c3ccc(CC)cc3)cc2)[C@]2(C)[C@H](C)CC[C@]3(CCC(=O)[C@H]32)[C@@H](C)[C@@H]1O [Compound 16c, 22-[4-(6-Chloro-1-(4-ethylphenyl)-1H-pyrazolo[3,4-d]pyrimidine-4-yl)amino-Phenylsulfanyl]-22-deoxypleuromutilin] | 97 to 99 °C |  | > 64 µg/mL |  | > 64 µg/mL |  | > 64 µg/mL |  | > 64 µg/mL |  | 
10 | C=C[C@]1(C)C[C@@H](OC(=O)CNc2nc(Cl)nc3c2cnn3-c2cccc(OC)c2)[C@]2(C)[C@H](C)CC[C@]3(CCC(=O)[C@H]32)[C@@H](C)[C@@H]1O [Compound 17b, 22-[(6-Chloro-1-(3-methoxyphenyl)-1H-pyrazolo[3,4-d]pyrimidine-4-yl)amino]-22-deoxypleuromutilin] | 99 to 104 °C |  | > 64 µg/mL |  | > 64 µg/mL |  | > 64 µg/mL |  | > 64 µg/mL |  | 
11 | C=C[C@]1(C)C[C@@H](OC(=O)CSc2ccc(Nc3nc(Cl)nc4c3cnn4-c3cccc(OC)c3)cc2)[C@]2(C)[C@H](C)CC[C@]3(CCC(=O)[C@H]32)[C@@H](C)[C@@H]1O [Compound 17c, 22-[4-(6-Chloro-1-(3-methoxyphenyl)-1H-pyrazolo[3,4-d]pyrimidine-4-yl)amino-Phenylsulfanyl]-22-deoxypleuromutilin] | 97 to 102 °C |  | > 64 µg/mL |  | > 64 µg/mL |  | > 64 µg/mL |  | > 64 µg/mL |  | 
12 | C=C[C@]1(C)C[C@@H](OC(=O)CNc2nc(Cl)nc3c2cnn3-c2ccccc2F)[C@]2(C)[C@H](C)CC[C@]3(CCC(=O)[C@H]32)[C@@H](C)[C@@H]1O [Compound 18b, 22-[(6-Chloro-1-(2-fluorophenyl)-1H-pyrazolo[3,4-d]pyrimidine-4-yl)amino]-22-deoxypleuromutilin] | 107 to 110 °C |  | > 64 µg/mL |  | > 64 µg/mL |  | > 64 µg/mL |  | > 64 µg/mL |  | 
13 | C=C[C@]1(C)C[C@@H](OC(=O)CNc2nc(Cl)nc3c2cnn3-c2ccc(OC(F)(F)F)cc2)[C@]2(C)[C@H](C)CC[C@]3(CCC(=O)[C@H]32)[C@@H](C)[C@@H]1O [Compound 23b, 22-[(6-Chloro-1-(4-(trifluoromethoxy)Phenyl)-1H-pyrazolo[3,4-d]pyrimidine-4-yl)amino]-22-deoxypleuromutilin] |  |  | > 64 µg/mL |  | > 64 µg/mL |  | > 64 µg/mL |  | > 64 µg/mL |  | 
14 | C=CC1(C)CC(OC(=O)CSc2ccc(N)cc2)C2(C)C(C)CCC3(CCC(=O)C32)C(C)C1O (stereo not drawn) [Compound 32, 22-(4-Amino-phenylsulfanyl)deoxypleuromutilin] |  |  | 0.0015 µg/mL (≈ 0.00309 µM) |  |  |  | 0.003 µg/mL (≈ 0.00618 µM) |  | 0.0015 µg/mL (≈ 0.00309 µM) |  | 0.0015 µg/mL (≈ 0.00309 µM)
